Marks after values point to notes of the source that are not given here.
Assays:
rats [1] = test: CLP polymicrobial sepsis model in rats, haemodynamic and biological measurements; format: in vivo, rat; settings: for effect on TNF-α production: CLP (FIG. 16); for Aortic blood flow / Bicarbonate / Heart Rate / Lactate / Mesenteric blood flow / pH: CLP polymicrobial sepsis; for decline in arterial pressure over time: H16 to H24 (FIG. 15)
Protocol: The procedure has been described in details elsewhere (see Mansart, A. et al. Shock 19:38-44 (2003)). Briefly, rats (n=6-10 per group) were anesthetized by i.p. administration of ketamine (150 mg/kg). The caecum was exposed through a 3.0-cm abdominal midline incision and subjected to a ligation of the distal half followed by two punctures with a G21 needle. A small amount of stool was expelled from the punctures to ensure […]. The caecum was replaced into the peritoneal cavity and the abdominal incision closed in two layers. After surgery, all rats were injected s.c. with 50 mL/kg of normal saline solution for fluid resuscitation. TREM-1 or scrambled peptides were then administered as above.
(§1) Immediately after LPS administration as well as 16 hours after CLP, arterial BP (systolic, diastolic, and mean), heart rate, abdominal aortic blood flow, and mesenteric blood flow were recorded using a procedure described elsewhere (see Mansart, A. et al. Shock 19:38-44 (2003)). Briefly, the left carotid artery and the left jugular vein were cannulated with PE-50 tubing. Arterial BP was continuously monitored by a pressure transducer and an amplifier-recorder system (IOX EMKA Technologies, Paris, France). Perivascular probes (Transonic Systems, Ithaca, N.Y.) wrapped up the upper abdominal aorta and mesenteric artery, allowed to monitor their respective flows by means of a flowmeter (Transonic Systems). After the last measurement (4th hour during LPS experiments and 24th hour after CLP), animals were sacrificed by an overdose of sodium thiopental i.v.
(§2) Blood was sequentially withdrawn from the left carotid artery. Arterial lactate concentrations and blood gases analyses were performed on an automatic blood gas analyser (ABL 735, Radiometer, Copenhagen, Denmark). Concentrations of TNF-α and IL-1β in the plasma were determined by an ELISA test (Biosource, Nivelles, Belgium) according to the recommendations of the manufacturer. Plasmatic concentrations of nitrates/nitrites were measured using the Griess reaction (R&D Systems, Abingdon, UK).

[2] = test system: TREM-1/TREM-1 ligand interaction; test: competition of soluble mouse TREM-1/IgG1 binding to TREM-1 ligand positive peritoneal exudate cells (flow cytometry); settings: peptides 100 and 500 μM, pre-incubated 45 minutes on ice; 2 μg/ml mouseTREM-1/hIgG1
Protocol: Cytofluorimetric analysis of peritoneal exudate cells with 2 μg/ml of mouseTREM-1/hIgG1 in the presence of a 500 μM solution per mouse (thin line), 100 μM solution per mouse (dotted line) or absence (thick line) of the peptides is shown. The grey histogram represents immunostaining with human IgG1 as a control.
A possible mechanism of action could be the ability of TREM-1 derived peptide to interfere with TREM-1/TREM-1 ligand interaction. To address this question the Inventors performed competition experiments on TREM-1 ligand positive cells: PEC (Peritoneal Exudate Cells) from CLP treated mice.
Peritoneal exudate cells (PEC) from mice suffering from a caecal ligation and puncture (CLP)-induced peritonitis were subjected to flow cytometry analysis after incubation with a PE-conjugated anti-human IgG1 (Jackson Immunoresearch, Bar Harbor, USA). Competition with TREM-1 peptides was performed by pre-incubating cells with the indicated concentrations of peptides for 45 minutes on ice before adding mTREM-1-IgG1.

rats [3] = test: LPS-induced endotoxinemia in rats, haemodynamic and biological measurements; format: in vivo, rat; settings: for effect on plasma IL-1β release: LPS 15 mg/kg (FIG. 13B); for Nitrite/nitrate concentrations after LPS administration: LPS 15 mg/kg (FIG. 14); for Aortic blood flow / Heart Rate / Lactate / MAP / Mesenteric blood flow / pH (arterial): LPS-induced endotoxinemia
Protocol: Animals were randomly grouped (n=10-20) and treated with Escherichia coli LPS (0111:B4, Sigma-Aldrich, Lyon, France) i.p. in combination with the TREM-1 or scrambled peptides.
as §1, §2

Sequence: LQVTDSGLYRCVIYHPP [P5]
- effect on TNF-α production (rats [1]): decrease
- Aortic blood flow (rats [1]; H16): 41 ± 14 mL/min
- Bicarbonate (rats [1]; H16): 18.6 ± 2.0 mmol/L
- Heart Rate (rats [1]; H16): 460 ± 17^b bpm
- Lactate (rats [1]; H16): 3.3 ± 0.4^b mmol/L
- Mesenteric blood flow (rats [1]; H16): 15.3 ± 3.5^b mL/min
- pH (rats [1]; H16): 7.35 ± 0.01^b
- Aortic blood flow (rats [1]; H20): 31 ± 5^b mL/min
- Bicarbonate (rats [1]; H20): 18.0 ± 0.9^a mmol/L
- Heart Rate (rats [1]; H20): 500 ± 17^b bpm
- Lactate (rats [1]; H20): 3.6 ± 0.9^b, c mmol/L
- Mesenteric blood flow (rats [1]; H20): 11.0 ± 6.9^b, c mL/min
- pH (rats [1]; H20): 7.34 ± 0.01^b
- Aortic blood flow (rats [1]; H24): 28 ± 8^b mL/min
- Bicarbonate (rats [1]; H24): 17.1 ± 0.9^a, c mmol/L
- Heart Rate (rats [1]; H24): 510 ± 20 bpm
- Lactate (rats [1]; H24): 4.9 ± 1.1^b, c mmol/L
- Mesenteric blood flow (rats [1]; H24): 8.5 ± 3.5^b, c mL/min
- pH (rats [1]; H24): 7.36 ± 0.01^b, c
- decline in arterial pressure over time (rats [1]; CLP): almost totally abolished
- plasmatic TNF-α (rats [1]; CLP, by H20 (FIG. 16)): almost undetectable
- inhibition of TREM-1 interaction with its ligand (mTREM-1/IgG1 binding to PEC) [2]: inhibit TREM-1 interaction with its ligand in a dose dependent manner
- attenuation of plasma TNF-α production (rats [3]; LPS 15 mg/kg (FIG. 13A)): ~30%
- effect on plasma IL-1β release (rats [3]): strongly reduced
- Nitrite/nitrate concentrations after LPS administration (rats [3]): remained stable
- Aortic blood flow (rats [3]; H0): 48 ± 9 mL/min
- Heart Rate (rats [3]; H0): 474 ± 49 bpm
- Lactate (rats [3]; H0): 3.4 ± 1.5 mmol/L
- MAP (rats [3]; H0): 115 ± 16 mmHg
- Mesenteric blood flow (rats [3]; H0): 12.8 ± 6.4 mL/min
- pH (arterial) (rats [3]; H0): 7.33 ± 0.04
- Aortic blood flow (rats [3]; H1): 32 ± 8 mL/min
- Heart Rate (rats [3]; H1): 498 ± 26 bpm
- Lactate (rats [3]; H1): 5.4 ± 1.4 mmol/L
- MAP (rats [3]; H1): 99 ± 22 mmHg
- Mesenteric blood flow (rats [3]; H1): 11.4 ± 2.7 mL/min
- pH (arterial) (rats [3]; H1): 7.28 ± 0.06
- Aortic blood flow (rats [3]; H2): 23 ± 4 ^b mL/min
- Heart Rate (rats [3]; H2): 510 ± 42 bpm
- Lactate (rats [3]; H2): 5.5 ± 1.6 mmol/L
- MAP (rats [3]; H2): 101 ± 18 mmHg
- Mesenteric blood flow (rats [3]; H2): 9.2 ± 1.9 mL/min
- pH (arterial) (rats [3]; H2): 7.32 ± 0.07
- Aortic blood flow (rats [3]; H3): 20 ± 7 ^b mL/min
- Heart Rate (rats [3]; H3): 517 ± 62 bpm
- Lactate (rats [3]; H3): 5.9 ± 1.7 ^b mmol/L
- MAP (rats [3]; H3): 93 ± 21 ^b mmHg
- Mesenteric blood flow (rats [3]; H3): 6.0 ± 0.8 mL/min
- pH (arterial) (rats [3]; H3): 7.29 ± 0.11
- Aortic blood flow (rats [3]; H4): 15 ± 6 ^b mL/min
- Heart Rate (rats [3]; H4): 510 ± 26 bpm
- Lactate (rats [3]; H4): 7.4 ± 1.8 ^b mmol/L
- MAP (rats [3]; H4): 89 ± 10 ^b mmHg
- Mesenteric blood flow (rats [3]; H4): 5.0 ± 1.0 mL/min
- pH (arterial) (rats [3]; H4): 7.28 ± 0.12 ^b

Sequence: LVVTQRPFTRPSEVHMGKFTLKH (listed as Mus musculus) [P1]
- effect on TNF-α production (rats [1]): decrease
- Aortic blood flow (rats [1]; H16): 41 ± 12 mL/min
- Bicarbonate (rats [1]; H16): 16.8 ± 4.4 mmol/L
- Heart Rate (rats [1]; H16): 462 ± 16^a bpm
- Lactate (rats [1]; H16): 4.9 ± 0.4 mmol/L
- Mesenteric blood flow (rats [1]; H16): 13.5 ± 7.2 mL/min
- pH (rats [1]; H16): 7.32 ± 0.04
- Aortic blood flow (rats [1]; H20): 28 ± 17^a mL/min
- Bicarbonate (rats [1]; H20): 16.0 ± 5.4^b mmol/L
- Heart Rate (rats [1]; H20): 480 ± 30^a bpm
- Lactate (rats [1]; H20): 5.3 ± 1.1^a, c mmol/L
- Mesenteric blood flow (rats [1]; H20): 5.3 ± 3.0^c mL/min
- pH (rats [1]; H20): 7.31 ± 0.18^a
- Aortic blood flow (rats [1]; H24): 22 ± 16^a mL/min
- Bicarbonate (rats [1]; H24): 11.2 ± 0.8^c mmol/L
- Heart Rate (rats [1]; H24): 420 ± 30 bpm
- Lactate (rats [1]; H24): 6.8 ± 0.9^a, c mmol/L
- Mesenteric blood flow (rats [1]; H24): 4.5 ± 2.1^c mL/min
- pH (rats [1]; H24): 7.24 ± 0.06^a, c
- decline in arterial pressure over time (rats [1]; CLP): almost totally abolished
- inhibition of TREM-1 interaction with its ligand (mTREM-1/IgG1 binding to PEC) [2]: inhibit TREM-1 interaction with its ligand in a dose dependent manner
- effect on LPS-induced plasma TNF-α production (rats [3]; LPS 15 mg/kg (FIG. 13A)): no effect
- effect on plasma IL-1β release (rats [3]): delayed the IL-1β peak until the third hour after LPS injection, but without attenuation
- Nitrite/nitrate concentrations after LPS administration (rats [3]): increased rapidly
- Aortic blood flow (rats [3]; H0): 49 ± 11 mL/min
- Heart Rate (rats [3]; H0): 464 ± 25 bpm
- Lactate (rats [3]; H0): 2.7 ± 0.1 mmol/L
- MAP (rats [3]; H0): 116 ± 10 mmHg
- Mesenteric blood flow (rats [3]; H0): 12.0 ± 3.7 mL/min
- pH (arterial) (rats [3]; H0): 7.32 ± 0.04
- Aortic blood flow (rats [3]; H1): 39 ± 12 ^a mL/min
- Heart Rate (rats [3]; H1): 492 ± 26 bpm
- Lactate (rats [3]; H1): 4.9 ± 1.1 mmol/L
- MAP (rats [3]; H1): 119 ± 14 mmHg
- Mesenteric blood flow (rats [3]; H1): 10.5 ± 1.7 mL/min
- pH (arterial) (rats [3]; H1): 7.29 ± 0.04
- Aortic blood flow (rats [3]; H2): 26 ± 14 ^a mL/min
- Heart Rate (rats [3]; H2): 492 ± 26 bpm
- Lactate (rats [3]; H2): 5.0 ± 0.9 mmol/L
- MAP (rats [3]; H2): 113 ± 21 mmHg
- Mesenteric blood flow (rats [3]; H2): 7.7 ± 2.7 mL/min
- pH (arterial) (rats [3]; H2): 7.30 ± 0.01
- Aortic blood flow (rats [3]; H3): 22 ± 8 ^a mL/min
- Heart Rate (rats [3]; H3): 480 ± 30 bpm
- Lactate (rats [3]; H3): 5.7 ± 0.7 ^a mmol/L
- MAP (rats [3]; H3): 97 ± 29 ^a mmHg
- Mesenteric blood flow (rats [3]; H3): 5.0 ± 1.0 mL/min
- pH (arterial) (rats [3]; H3): 7.26 ± 0.06
- Aortic blood flow (rats [3]; H4): 16 ± 6 ^a mL/min
- Heart Rate (rats [3]; H4): 480 ± 20 bpm
- Lactate (rats [3]; H4): 7.9 ± 1.7 ^a mmol/L
- MAP (rats [3]; H4): 92 ± 7 ^a mmHg
- Mesenteric blood flow (rats [3]; H4): 4.8 ± 0.9 mL/min
- pH (arterial) (rats [3]; H4): 7.26 ± 0.08 ^a
